{"source": "paper PMC10971807", "about": "(Marine Drugs, 2024)", "key": {"hα3β4 nAChR": {"molecular_target": "hα3β4 nAChR (Homo sapiens, UniProt P30926+P32297)", "sequence (P32297 32-505 limits assumed)": "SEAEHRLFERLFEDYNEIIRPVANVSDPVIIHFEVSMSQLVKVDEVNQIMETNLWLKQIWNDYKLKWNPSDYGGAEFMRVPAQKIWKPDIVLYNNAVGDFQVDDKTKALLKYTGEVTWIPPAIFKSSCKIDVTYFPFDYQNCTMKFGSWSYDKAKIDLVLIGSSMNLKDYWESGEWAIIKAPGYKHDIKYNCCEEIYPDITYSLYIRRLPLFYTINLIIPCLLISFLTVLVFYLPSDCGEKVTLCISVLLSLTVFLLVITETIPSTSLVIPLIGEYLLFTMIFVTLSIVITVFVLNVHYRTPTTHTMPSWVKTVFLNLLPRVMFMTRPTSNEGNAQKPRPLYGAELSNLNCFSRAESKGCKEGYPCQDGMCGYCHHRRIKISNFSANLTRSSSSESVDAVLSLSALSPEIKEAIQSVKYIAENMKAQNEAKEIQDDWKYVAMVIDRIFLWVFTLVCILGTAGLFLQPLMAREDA", "sequence (P30926 22-498 limits assumed)": "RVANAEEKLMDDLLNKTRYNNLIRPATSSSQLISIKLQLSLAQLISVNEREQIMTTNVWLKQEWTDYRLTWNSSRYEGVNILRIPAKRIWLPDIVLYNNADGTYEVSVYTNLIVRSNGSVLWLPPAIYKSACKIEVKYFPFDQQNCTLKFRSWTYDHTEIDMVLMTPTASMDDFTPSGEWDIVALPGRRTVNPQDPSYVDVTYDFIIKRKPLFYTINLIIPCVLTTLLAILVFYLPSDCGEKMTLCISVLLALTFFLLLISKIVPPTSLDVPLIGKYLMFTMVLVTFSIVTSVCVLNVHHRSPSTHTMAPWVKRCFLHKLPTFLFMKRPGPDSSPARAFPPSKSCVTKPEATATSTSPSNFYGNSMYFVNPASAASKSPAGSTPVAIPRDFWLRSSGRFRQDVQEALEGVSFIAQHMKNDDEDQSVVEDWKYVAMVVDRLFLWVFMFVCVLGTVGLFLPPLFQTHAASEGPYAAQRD", "assay_type": "cell-based"}, "hα4β4 nAChR": {"molecular_target": "hα4β4 nAChR (Homo sapiens, UniProt P30926+P43681)", "sequence (P43681 29-627 limits assumed)": "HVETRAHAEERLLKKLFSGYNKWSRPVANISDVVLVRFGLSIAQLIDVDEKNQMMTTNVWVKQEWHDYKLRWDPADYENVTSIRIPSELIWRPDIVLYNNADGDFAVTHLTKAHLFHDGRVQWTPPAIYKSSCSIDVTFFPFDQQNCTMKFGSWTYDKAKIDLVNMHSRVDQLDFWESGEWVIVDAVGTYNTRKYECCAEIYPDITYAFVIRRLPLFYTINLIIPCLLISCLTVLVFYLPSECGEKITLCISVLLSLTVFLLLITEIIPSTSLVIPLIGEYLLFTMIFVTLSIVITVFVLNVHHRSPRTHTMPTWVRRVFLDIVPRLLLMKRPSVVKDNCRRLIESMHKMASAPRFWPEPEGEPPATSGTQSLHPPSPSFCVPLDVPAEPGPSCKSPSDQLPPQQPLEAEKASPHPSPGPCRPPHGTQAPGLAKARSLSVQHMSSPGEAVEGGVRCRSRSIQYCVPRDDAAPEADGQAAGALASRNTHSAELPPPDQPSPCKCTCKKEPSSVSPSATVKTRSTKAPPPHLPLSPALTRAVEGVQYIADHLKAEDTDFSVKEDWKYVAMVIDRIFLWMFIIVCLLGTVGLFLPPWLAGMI", "sequence (P30926 22-498 limits assumed)": "as the sequence (P30926 22-498 limits assumed) above", "assay_type": "cell-based"}, "hα4β2 nAChR": {"molecular_target": "hα4β2 nAChR (Homo sapiens, UniProt P17787+P43681)", "sequence (P43681 29-627 limits assumed)": "as the sequence (P43681 29-627 limits assumed) above", "sequence (P17787 26-502 limits assumed)": "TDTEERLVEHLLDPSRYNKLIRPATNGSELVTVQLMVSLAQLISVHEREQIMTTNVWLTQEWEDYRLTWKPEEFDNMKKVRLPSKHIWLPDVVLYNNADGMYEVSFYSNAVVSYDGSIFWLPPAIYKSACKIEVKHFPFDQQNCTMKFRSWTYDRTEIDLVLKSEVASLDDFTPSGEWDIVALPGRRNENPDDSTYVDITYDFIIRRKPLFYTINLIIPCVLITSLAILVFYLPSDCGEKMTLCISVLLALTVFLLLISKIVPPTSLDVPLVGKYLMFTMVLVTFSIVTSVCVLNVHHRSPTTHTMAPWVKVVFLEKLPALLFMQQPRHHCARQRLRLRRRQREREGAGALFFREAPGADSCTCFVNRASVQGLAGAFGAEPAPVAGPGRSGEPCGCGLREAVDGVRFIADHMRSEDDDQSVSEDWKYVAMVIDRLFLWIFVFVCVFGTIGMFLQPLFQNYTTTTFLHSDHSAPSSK", "assay_type": "cell-based"}, "hα9α10 nAChR": {"molecular_target": "hα9α10 nAChR (Homo sapiens, UniProt Q9GZZ6+Q9UGM1)", "sequence (Q9UGM1 26-479 limits assumed)": "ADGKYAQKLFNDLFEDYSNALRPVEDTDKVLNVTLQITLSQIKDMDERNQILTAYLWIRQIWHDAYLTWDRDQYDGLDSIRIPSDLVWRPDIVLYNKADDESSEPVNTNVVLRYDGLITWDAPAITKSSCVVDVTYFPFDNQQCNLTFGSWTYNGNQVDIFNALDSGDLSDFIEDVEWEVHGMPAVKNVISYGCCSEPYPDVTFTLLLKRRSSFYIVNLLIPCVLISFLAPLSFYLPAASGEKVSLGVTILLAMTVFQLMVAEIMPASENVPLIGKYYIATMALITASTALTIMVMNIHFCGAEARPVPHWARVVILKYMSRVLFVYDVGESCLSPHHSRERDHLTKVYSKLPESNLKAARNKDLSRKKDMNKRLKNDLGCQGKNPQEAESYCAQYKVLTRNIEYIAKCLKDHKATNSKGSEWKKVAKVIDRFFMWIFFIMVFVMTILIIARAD", "sequence (Q9GZZ6 25-450 limits assumed)": "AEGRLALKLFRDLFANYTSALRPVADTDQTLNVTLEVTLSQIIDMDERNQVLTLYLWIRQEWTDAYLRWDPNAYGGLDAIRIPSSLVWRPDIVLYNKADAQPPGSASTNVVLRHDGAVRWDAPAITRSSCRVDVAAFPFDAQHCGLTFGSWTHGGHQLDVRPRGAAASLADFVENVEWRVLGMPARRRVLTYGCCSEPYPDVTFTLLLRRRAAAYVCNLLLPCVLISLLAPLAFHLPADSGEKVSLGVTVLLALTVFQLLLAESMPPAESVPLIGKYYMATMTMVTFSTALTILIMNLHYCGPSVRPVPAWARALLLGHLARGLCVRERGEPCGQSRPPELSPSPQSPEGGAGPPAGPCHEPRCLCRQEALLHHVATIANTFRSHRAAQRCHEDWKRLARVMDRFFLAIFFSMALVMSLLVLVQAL", "test": "cell-based", "settings": "for IC50: IC50, inhibition of ACh-evoked currents at hα9α10 nAChRs"}, "hα3β2 nAChR": {"molecular_target": "hα3β2 nAChR (Homo sapiens, UniProt P17787+P32297)", "sequence (P32297 32-505 limits assumed)": "as the sequence (P32297 32-505 limits assumed) above", "sequence (P17787 26-502 limits assumed)": "as the sequence (P17787 26-502 limits assumed) above", "test": "cell-based"}, "hα7 nAChR": {"molecular_target": "hα7 nAChR (Homo sapiens, UniProt P36544)", "sequence (P36544 23-502 limits assumed)": "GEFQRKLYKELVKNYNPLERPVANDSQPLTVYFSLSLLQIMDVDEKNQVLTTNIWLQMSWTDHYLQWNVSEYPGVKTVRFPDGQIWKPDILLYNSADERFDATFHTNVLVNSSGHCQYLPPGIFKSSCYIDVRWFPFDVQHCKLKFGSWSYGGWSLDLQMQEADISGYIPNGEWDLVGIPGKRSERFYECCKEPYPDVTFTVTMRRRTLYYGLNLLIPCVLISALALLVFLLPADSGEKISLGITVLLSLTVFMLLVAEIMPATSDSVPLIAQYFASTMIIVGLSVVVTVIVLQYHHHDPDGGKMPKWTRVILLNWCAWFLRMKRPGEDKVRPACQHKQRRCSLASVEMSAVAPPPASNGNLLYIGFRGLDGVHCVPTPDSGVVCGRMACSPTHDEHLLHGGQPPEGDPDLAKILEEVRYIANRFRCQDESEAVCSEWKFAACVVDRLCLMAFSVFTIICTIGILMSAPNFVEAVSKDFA", "test": "cell-based"}}, "note": "Several values for one entry are separate records, joined by “and”; a condition that tells them apart may be missing. Identical values can stand only once. Where a SMILES comes first, the peptide text is derived from it. Bridges are numbered along the chain shown (N, C = ends). [ ]: non-standard residue; d: D form. Dab = NCC[C@H](N)C(=O)O; Dap = NC[C@H](N)C(=O)O", "data": [{"smiles": "CC(C)C[C@@H]1NC(=O)[C@H](CCC(=O)O)NC(=O)[C@@H]2CCCN2C(=O)[C@H](Cc2c[nH]cn2)NC(=O)[C@H](CC(N)=O)NC(=O)[C@H](C(C)C)NC(=O)[C@H](CO)NC(=O)[C@@H]2CSSC[C@H](NC(=O)CN)C(=O)N[C@@H](CSSC[C@@H](C(N)=O)NC1=O)C(=O)N[C@@H](CO)C(=O)N[C@@H](Cc1c[nH]cn1)C(=O)N1CCC[C@H]1C(=O)N[C@@H](C)C(=O)N2", "note": "[PeIA] (H-GCCSHPACSVNHPELC-NH2; disulfide 2-8, 3-16)", "values": [{"measurement": "Inhibition of ACh-evoked currents at hα3β4", "setting": "hα3β4 nAChR", "result": "< 1", "unit": "%"}, {"measurement": "Inhibition of ACh-evoked currents at hα4β4", "setting": "hα4β4 nAChR", "result": "< 1", "unit": "%"}, {"measurement": "Inhibition of ACh-evoked currents at hα4β2", "setting": "hα4β2 nAChR", "result": "< 1", "unit": "%"}]}, {"smiles": "CC(C)C[C@@H]1NC(=O)[C@H](CCC(=O)O)NC(=O)[C@@H]2CCCN2C(=O)[C@H](Cc2c[nH]cn2)NC(=O)[C@H](CC(N)=O)NC(=O)[C@H](C(C)C)NC(=O)[C@H](CO)NC(=O)[C@@H]2CSSC[C@H](NC(=O)CN)C(=O)N[C@@H](CSSC[C@@H](C(N)=O)NC1=O)C(=O)N[C@@H](CN)C(=O)N[C@@H](Cc1c[nH]cn1)C(=O)N1CCC[C@H]1C(=O)N[C@@H](C)C(=O)N2", "note": "[PeIA[S4Dap]] (H-GCC[Dap]HPACSVNHPELC-NH2; disulfide 2-8, 3-16)", "values": [{"measurement": "Enhancement of activity (IC50) at hα9α10 relative to PeIA", "setting": "hα9α10 nAChR", "result": "~13", "unit": "fold"}, {"measurement": "IC50", "setting": "hα9α10 nAChR", "result": 1.74, "unit": "nM"}]}, {"smiles": "CC(C)C[C@@H]1NC(=O)[C@H](CCC(=O)O)NC(=O)[C@@H]2CCCN2C(=O)[C@H](Cc2c[nH]cn2)NC(=O)[C@H](CC(N)=O)NC(=O)[C@H](C(C)C)NC(=O)[C@H](CN)NC(=O)[C@@H]2CSSC[C@H](NC(=O)CN)C(=O)N[C@@H](CSSC[C@@H](C(N)=O)NC1=O)C(=O)N[C@@H](CO)C(=O)N[C@@H](Cc1c[nH]cn1)C(=O)N1CCC[C@H]1C(=O)N[C@@H](C)C(=O)N2", "note": "[PeIA[S9Dap]] (H-GCCSHPAC[Dap]VNHPELC-NH2; disulfide 2-8, 3-16)", "values": [{"measurement": "Enhancement of activity (IC50) at hα9α10 relative to PeIA", "setting": "hα9α10 nAChR", "result": "~5", "unit": "fold"}, {"measurement": "IC50", "setting": "hα9α10 nAChR", "result": 4.67, "unit": "nM"}]}, {"smiles": "CC(C)C[C@@H]1NC(=O)[C@H](CCC(=O)O)NC(=O)[C@@H]2CCCN2C(=O)[C@H](Cc2c[nH]cn2)NC(=O)[C@H](CC(N)=O)NC(=O)[C@H](C(C)C)NC(=O)[C@H](CO)NC(=O)[C@@H]2CSSC[C@H](NC(=O)CN)C(=O)N[C@@H](CSSC[C@@H](C(N)=O)NC1=O)C(=O)N[C@@H](CCN)C(=O)N[C@@H](Cc1c[nH]cn1)C(=O)N1CCC[C@H]1C(=O)N[C@@H](C)C(=O)N2", "note": "[PeIA[S4Dab]] (H-GCC[Dab]HPACSVNHPELC-NH2; disulfide 2-8, 3-16)", "values": [{"measurement": "Enhancement of activity (IC50) at hα9α10 relative to PeIA", "setting": "hα9α10 nAChR", "result": "~ 4 fold"}, {"measurement": "IC50", "setting": "hα9α10 nAChR", "result": "5.32 nM and 5.3 nM"}]}, {"smiles": "CC(C)C[C@@H]1NC(=O)[C@H](CCC(=O)O)NC(=O)[C@@H]2CCCN2C(=O)[C@H](Cc2cnc[nH]2)NC(=O)[C@H](CC(N)=O)NC(=O)[C@H](C(C)C)NC(=O)[C@H](CO)NC(=O)[C@@H]2CSSC[C@H](NC(=O)CN)C(=O)N[C@@H](CSSC[C@@H](C(N)=O)NC1=O)C(=O)N[C@@H](CO)C(=O)N[C@@H](Cc1cnc[nH]1)C(=O)N1CCC[C@H]1C(=O)N[C@@H](C)C(=O)N2", "note": "[PeIA] (H-GCCSHPACSVNHPELC-NH2; disulfide 2-8, 3-16)", "values": [{"measurement": "IC50", "setting": "hα3β2 nAChR", "result": 59.8, "unit": "nM"}]}, {"smiles": "CC(C)C[C@@H]1NC(=O)[C@H](CCC(=O)O)NC(=O)[C@@H]2CCCN2C(=O)[C@H](Cc2c[nH]cn2)NC(=O)[C@H](CC(N)=O)NC(=O)[C@H](C(C)C)NC(=O)[C@H](CN)NC(=O)[C@@H]2CSSC[C@H](NC(=O)CN)C(=O)N[C@@H](CSSC[C@@H](C(N)=O)NC1=O)C(=O)N[C@@H](CN)C(=O)N[C@@H](Cc1c[nH]cn1)C(=O)N1CCC[C@H]1C(=O)N[C@@H](C)C(=O)N2", "note": "[PeIA[S4Dap, S9Dap]] (H-GCC[Dap]HPAC[Dap]VNHPELC-NH2; disulfide 2-8, 3-16)", "values": [{"measurement": "IC50", "setting": "hα3β2 nAChR", "result": 32.8, "unit": "nM"}, {"measurement": "IC50", "setting": "hα7 nAChR", "result": 162, "unit": "nM"}, {"measurement": "Enhancement of activity (IC50) at hα9α10 relative to PeIA", "setting": "hα9α10 nAChR", "result": "~24", "unit": "fold"}, {"measurement": "Potency at hα9α10 relative to dimeric PeIA", "setting": "hα9α10 nAChR", "result": "approximately two-fold"}, {"measurement": "IC50", "setting": "hα9α10 nAChR", "result": 0.93, "unit": "nM"}]}]}
